Results on 3 molecules are retold here after paper PMC8304660, “Identification of Erythromycin and Clarithromycin Metabolites Formed in Chicken Liver Microsomes Using Liquid Chromatography–High-Resolution Mass Spectrometry” (Foods, 2021).

SMILES strings stand for the structures. Several values for one entry are separate records, joined by “and”; a condition that tells them apart may be missing. Equal values may be shown once.

The nature of data set [1]: In vitro incubation in chicken liver microsomes with or without NADPH, LC/ESI-HR-MS analysis. As to Remaining Content (%) +Cofactor, 2: tested at 1 µM. As to Remaining Content (%) +Cofactor, 3: tested at 1 µM. As to Remaining Content (%) −Cofactor, 2: tested at 1 µM. As to Remaining Content (%) −Cofactor, 3: tested at 1 µM. As to Remaining Content +Cofactor, Mean ± SD (%): tested at 1 µM. As to Remaining Content −Cofactor, Mean ± SD (%): tested at 1 µM. The class given is in vitro ADME. The settings on record: for Remaining Content −Cofactor, Mean ± SD (%) / Remaining Content (%) −Cofactor, 1 / Remaining Content (%) −Cofactor, 2 / Remaining Content (%) −Cofactor, 3 / Remaining Content +Cofactor, Mean ± SD (%) / Remaining Content (%) +Cofactor, 1 / Remaining Content (%) +Cofactor, 2 / Remaining Content (%) +Cofactor, 3: chicken liver microsomes (CLM), 60 min vs 0 min incubation; for Remaining Content −Cofactor, Mean ± SD (%) / Remaining Content (%) −Cofactor, 1 / Remaining Content (%) −Cofactor, 2 / Remaining Content (%) −Cofactor, 3: no NADPH (control); for Remaining Content −Cofactor, Mean ± SD (%) / Remaining Content +Cofactor, Mean ± SD (%): mean of 3; for Remaining Content (%) −Cofactor, 1 / Remaining Content (%) +Cofactor, 1: replicate 1; for Remaining Content (%) −Cofactor, 2 / Remaining Content (%) +Cofactor, 2: replicate 2; for Remaining Content (%) −Cofactor, 3 / Remaining Content (%) +Cofactor, 3: replicate 3; for Remaining Content +Cofactor, Mean ± SD (%) / Remaining Content (%) +Cofactor, 1 / Remaining Content (%) +Cofactor, 2 / Remaining Content (%) +Cofactor, 3: with NADPH cofactor. The protocol:
The incubation system (100 μL) contained 65 μL of potassium phosphate buffer (0.1 M, pH 7.4), 20 μL of chicken liver microsomes (5 mg/mL), 5 μL of a compound (20 μM) and […]. After a 5 min preincubation period at 37 °C, the reaction was started by introducing 10 μL of NADPH (10 mM) as the cofactor solution. The final study groups were divided into cofactor and no cofactor (control) groups. After preincubation for 5 min, 10 μL of potassium phosphate buffer (0.1 M, pH 7.4) was added to the control group. […] For 0 min samples, the reaction was quenched immediately after the 5-min preincubation, followed by the addition of 10 μL of NADPH (10 mM) and 10 μL of potassium phosphate buffer (0.1 M, pH 7.4) to the cofactor and control groups, respectively. Following brief sonication (5 min) and vortexing (5 min), the mixtures were centrifuged for 30 min at 3000 rpm and 4 °C. The supernatant was transferred to an Agilent 96-well plate and then analysed on an Agilent 6530 Q-TOF LC-MS/MS instrument.
Liquid chromatographic separation and mass spectrometric detection were performed on an Agilent 1200 series HPLC system and an Agilent 6530 Q-TOF LC-MS/MS system equipped with a dual AJS ESI ion source. Chromatographic separation was performed on an Agilent Eclipse Plus C18 column (100 mm × 2.1 mm; i.d. 3.5 µm) by gradient elution with a mobile phase consisting of 0.1 vol.% formic acid in water (A) and ACN (B) at 40 °C: 0–2 min, 5 vol.% B; 2–3 min, 50 vol.% B; 3–4 min, 75 vol.% B; and 4-5 min, 5 vol.% B. The injection volume was 5 μL with a flow rate of 0.4 mL/min. Before sample injection, the instrument was equilibrated under the initial gradient conditions (A:B = 95:5, v/v) and the above-mentioned column temperature and flow rate conditions. HR-MS detection was carried out in positive ionization mode with the following ion source parameters: capillary voltage, 4000 V; drying gas, 12 L/min and 325 °C; nebulizer gas, 35 psi; and sheath gas, 10 L/min and 350 °C. Mass spectra were acquired in positive ion auto MS/MS mode (F, 100 V; CE, 0 eV) with a full scan range of m/z (100–1000) and a mass scan rate of 5 spectra/s. The mass spectrometer was run in an extended dynamic range mode with a mass range of m/z 50–3200. The mass resolving power was greater than 12,000 FWHM at m/z 1552.
The data were analysed using Agilent MassHunter Quantitative Analysis software (version B.05.00) and Agilent MassHunter Metabolite ID software (version B.04.00) (Santa Clara, CA, USA). The remaining content was evaluated by dividing the ratio of the response of the target compound to the response of the IS at 60 min of incubation by the ratio of the response of the target compound to the response of the IS at 0 min of incubation in the cofactor group or control group.
In general terms: Liver microsomes are a subcellular fraction often used to study metabolism.

Another data set concerns CYP3A4. Also on record: method as in PMID 1732074, PMID 1976065. The note with it: midazolam as the CYP3A4 substrate; cited from earlier work.
In another data set the test system is P-GP. Also noted: method as in PMID 1732074, PMID 1976065. The settings on record: cited from earlier work.

Consider `O=C1CC2(CCCC2)CC(=O)N1CCCCN1CCN(c2ncccn2)CC1` [BUS, buspirone], for which, in data set [1], the “Remaining Content −Cofactor, Mean ± SD (%)” value came out at 81.5 ± 13.8%; the “Remaining Content (%) −Cofactor, 1” value was 87.5%; the “Remaining Content (%) −Cofactor, 2” value is reported as 65.7%; the “Remaining Content (%) −Cofactor, 3” value came to 91.2%. Besides, in data set [1], the “Remaining Content +Cofactor, Mean ± SD (%)” value was 48.9% and 48.9 ± 4.5%; the “Remaining Content (%) +Cofactor, 1” value turned out to be 46.4%; the “Remaining Content (%) +Cofactor, 2” value is on record as 46.2%; the “Remaining Content (%) +Cofactor, 3” value came out at 54.1%.
For `CC[C@H]1OC(=O)[C@H](C)[C@@H](O[C@H]2C[C@@](C)(OC)[C@@H](O)[C@H](C)O2)[C@H](C)[C@@H](O[C@@H]2O[C@H](C)C[C@H](N(C)C)[C@H]2O)[C@](C)(O)C[C@@H](C)C(=O)[C@H](C)[C@@H](O)[C@]1(C)O` [ERY, erythromycin A], in data set [1], the “Remaining Content −Cofactor, Mean ± SD (%)” value worked out at 94.8 ± 6.3%; the “Remaining Content (%) −Cofactor, 1” value stood at 99.0%; the “Remaining Content (%) −Cofactor, 2” value was determined as 97.9%; the “Remaining Content (%) −Cofactor, 3” value is 87.6%. In addition, in data set [1], the “Remaining Content +Cofactor, Mean ± SD (%)” value was 86.6% and 86.6 ± 6.5%; the “Remaining Content (%) +Cofactor, 1” value is recorded as 82.6%; the “Remaining Content (%) +Cofactor, 2” value is reported as 83.1%; the “Remaining Content (%) +Cofactor, 3” value is recorded as 94.1%.
Turning to `CC[C@H]1OC(=O)[C@H](C)[C@@H](O[C@H]2C[C@@](C)(OC)[C@@H](O)[C@H](C)O2)[C@H](C)[C@@H](O[C@@H]2O[C@H](C)C[C@H](N(C)C)[C@H]2O)[C@](C)(OC)C[C@@H](C)C(=O)[C@H](C)[C@@H](O)[C@]1(C)O` [CLA, clarithromycin], in data set [1], the “Remaining Content −Cofactor, Mean ± SD (%)” value came out at 86.6 ± 12.3%; the “Remaining Content (%) −Cofactor, 1” value worked out at 100.7%; the “Remaining Content (%) −Cofactor, 2” value stood at 78.7%; the “Remaining Content (%) −Cofactor, 3” value worked out at 80.3%. In data set [1], the “Remaining Content +Cofactor, Mean ± SD (%)” value is 89.8% and 89.8 ± 21.5%; the “Remaining Content (%) +Cofactor, 1” value was 77.5%; the “Remaining Content (%) +Cofactor, 2” value was found to be 77.3%; the “Remaining Content (%) +Cofactor, 3” value is 114.7%. In addition, in data set [1] (chicken liver microsomes, incubation for 60 min with NADPH cofactor, extracted ion chromatograms), the “Formation of N-desmethyl metabolite” value is “cannot produce N-desmethyl-clarithromycin”. Besides, the “Strength of drug interaction” value with CYP3A4 is “strong”. Moreover, the “Inhibition of the activity of the drug transporter P-GP” value in the data set on P-GP was “do not inhibit”.
